Measurements: patent US10640469B2, “Polyhydroxyphthalazinone compound, preparation method thereof and use thereof” (RejuvGen Pharmaceuticals, Inc., priority 2017, dated 2020)

Experiments:
[1] = molecular target: ER-β receptor (Homo sapiens, UniProt Q92731); assay: Radioligand ([3H]-estradiol) competition binding to estrogen receptor, ER-β; conditions: [3H]-estradiol 100 nM, incubated overnight at 4° C., GF/B filtration, scintillation counting; read-out: Affinity constant of ER-β receptor
Description: (§1) The activity of the compound was obtained as follows: the compound was first dissolved in DMSO and formulated into 6-8 concentration gradient solutions. The estrogen receptor and radiolabeled estradiol ([^3H]-estradiol, 100 nM) were added into the buffer and mixed to prepare a reaction solution. Each compound concentration gradient solution was separately added into the reaction solution, mixed, and incubated overnight at 4° C. so that the compound and estradiol fully reacted with the estrogen receptor. Then, the TopCount NXT Liquid Scintillation Counter (Perkin Elmer) was used for the radioactivity intensity measurement after GF/B filtration. Data processing was performed according to the detected values of each concentration to obtain the affinity constant of the compound with estrogen receptor, as shown in the following table: […]

[2] = molecular target: T1, ER-α receptor (Homo sapiens, UniProt P03372); assay: Radioligand ([3H]-estradiol) competition binding to estrogen receptor, ER-α; conditions: [3H]-estradiol 100 nM, incubated overnight at 4° C., GF/B filtration, scintillation counting; read-out: Affinity constant of ER-α receptor
T1 sequence (P03372 1-595): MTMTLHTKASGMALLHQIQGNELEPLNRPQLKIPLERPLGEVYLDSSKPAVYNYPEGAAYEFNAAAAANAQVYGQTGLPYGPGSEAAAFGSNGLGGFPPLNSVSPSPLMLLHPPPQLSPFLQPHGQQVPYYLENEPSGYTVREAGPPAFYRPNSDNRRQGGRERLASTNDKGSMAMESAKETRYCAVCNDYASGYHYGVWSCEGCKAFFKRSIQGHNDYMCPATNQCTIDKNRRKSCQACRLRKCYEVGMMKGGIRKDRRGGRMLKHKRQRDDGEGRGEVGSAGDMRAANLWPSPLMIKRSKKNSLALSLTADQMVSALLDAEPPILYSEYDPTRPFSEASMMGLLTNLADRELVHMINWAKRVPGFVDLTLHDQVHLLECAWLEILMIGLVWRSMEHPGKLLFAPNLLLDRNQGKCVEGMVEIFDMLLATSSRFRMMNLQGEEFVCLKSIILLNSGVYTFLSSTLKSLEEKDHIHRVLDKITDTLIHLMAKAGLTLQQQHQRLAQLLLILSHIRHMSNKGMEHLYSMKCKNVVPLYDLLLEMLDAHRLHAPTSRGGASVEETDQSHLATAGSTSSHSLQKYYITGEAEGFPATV
Description: as §1

ER-β receptor, sequence (Q92731 whole entry): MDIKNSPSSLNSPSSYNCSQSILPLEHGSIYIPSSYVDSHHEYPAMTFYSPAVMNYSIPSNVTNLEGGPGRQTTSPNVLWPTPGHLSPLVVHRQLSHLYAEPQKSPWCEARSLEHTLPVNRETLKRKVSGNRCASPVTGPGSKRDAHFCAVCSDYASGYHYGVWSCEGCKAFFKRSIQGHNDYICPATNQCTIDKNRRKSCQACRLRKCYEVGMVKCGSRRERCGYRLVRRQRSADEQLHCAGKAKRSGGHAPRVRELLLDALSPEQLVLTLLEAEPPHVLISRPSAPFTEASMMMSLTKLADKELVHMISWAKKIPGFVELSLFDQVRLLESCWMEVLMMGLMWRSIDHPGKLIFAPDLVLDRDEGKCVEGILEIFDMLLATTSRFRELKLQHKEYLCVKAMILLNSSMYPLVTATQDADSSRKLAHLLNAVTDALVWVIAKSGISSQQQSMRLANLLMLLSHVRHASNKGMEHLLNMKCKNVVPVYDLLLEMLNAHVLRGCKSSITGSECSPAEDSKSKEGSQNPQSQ

A Ki [1] of 10 nM and a Ki [2] of 98 nM were found for CCc1nn(-c2ccc(O)cc2)c(=O)c2c(O)cc(O)cc12 in this work.

A Ki [1] of 1500 nM and a Ki [2] of 3600 nM were found for O=c1c2c(O)cc(O)c(Br)c2cnn1-c1ccc(O)cc1 in this work.

A Ki [1] of 8 nM and a Ki [2] of 76 nM were found for Cc1nn(-c2ccc(O)cc2)c(=O)c2c(O)cc(O)cc12 in this work.

A Ki [1] of 105 nM and a Ki [2] of 1200 nM were found for O=c1c2c(O)cc(O)cc2cnn1-c1ccc(O)cc1 in this work.
